From the SangsterLogP compilation

Row | logP | SMILES
1 | -1.89 | O=C(O[C@@H]1O[C@H](CO)[C@@H](O)[C@H](O)[C@H]1O)c1cc(O)c(O)c(O)c1
2 | 0.7 | O=c1c(O[C@@H]2O[C@H](CO)[C@@H](O)[C@H](O)[C@H]2O)c(-c2ccc(O)c(O)c2)oc2cc(O)cc(O)c12
3 | -0.52 | Oc1cc(O)c2c(c1)OC(c1ccc(O)c(O)c1)C(O)C2c1c(O)cc(O)c2c1O[C@H](c1ccc(O)c(O)c1)[C@@H](O)C2 (stereo in doubt)
4 | -1.19 | O=C(O[C@@H]1O[C@@H]2COC(=O)c3cc(O)c(O)c(O)c3-c3c(cc(O)c(O)c3O)C(=O)O[C@H]([C@H]1O)[C@@H]2O)c1cc(O)c(O)c(O)c1
5 | -0.35 | O=CC(O)(COC(=O)c1cc(O)c(O)c(O)c1)C(O)C(O)COC(=O)c1cc(O)c(O)c(O)c1 (stereo not given)
6 | -0.33 | O=C(OCC1OC(OC(=O)c2cc(O)c(O)c(O)c2)C(O)C(O)C1O)c1cc(O)c(O)c(O)c1 (stereo not given)
7 | 0.61 | O=C(OCC1O[C@@H](O)C(O)(COC(=O)c2cc(O)c(O)c(O)c2)C1OC(=O)c1cc(O)c(O)c(O)c1)c1cc(O)c(O)c(O)c1 (stereo not given in full)
8 | 1 | COc1cc(O)c2c(=O)cc(C)oc2c1
9 | 1.68 | O=C(O[C@H]1Cc2c(O)cc(O)cc2O[C@H]1c1ccc(O)c(O)c1)c1cc(O)c(O)c(O)c1

More lines, now with the values behind:

Row | SMILES | logP
10 | O=C1OC[C@H]2OC(O)[C@@H]3OC(=O)c4cc(O)c(O)c(O)c4-c4c(cc(O)c(O)c4O)C(=O)O[C@H]3[C@@H]2OC(=O)c2cc(O)c(O)c(O)c2-c2c1cc(O)c(O)c2O (stereo not given in full) | -2.1
11 | O=C(O[C@@H]1Cc2c(O)cc(O)cc2O[C@@H]1c1cc(O)c(O)c(O)c1)c1cc(O)c(O)c(O)c1 | 1.08
12 | O=C(OC[C@H]1OC(O)[C@@H]2OC(=O)c3cc(O)c(O)c(O)c3-c3c(cc(O)c(O)c3O)C(=O)O[C@H]2[C@@H]1OC(=O)c1cc(O)c(O)c(O)c1-c1c(O)c(O)c2oc(=O)c3cc(O)c(O)c4oc(=O)c1c2c43)c1cc(O)c(O)c(O)c1 (stereo not given in full) | -2.15
13 | O=C(O[C@@H]1O[C@@H]2COC(=O)c3cc(O)c(O)c(O)c3-c3c(cc(O)c(O)c3O)C(=O)O[C@H]2[C@@H]2OC(=O)c3cc(O)c(O)c(O)c3-c3c(cc(O)c(O)c3O)C(=O)O[C@@H]12)c1cc(O)c(O)c(O)c1 | -1.07
14 | O=C(O[C@@H]1COC(=O)c2cc(O)c(O)c(O)c2-c2c(cc(O)c(O)c2O)C(=O)OC1[C@@H]1OC(=O)c2cc(O)c(O)c(O)c2-c2c(O)c(O)c(O)c3c2C(=O)O[C@H]1[C@H]3O)c1cc(O)c(O)c(O)c1 (stereo not given in full) | 1.28
15 | O=CC1OC(=O)c2cc(O)c(O)c(O)c2-c2c(cc(O)c(O)c2O)C(=O)OC1C1OC(=O)c2cc(O)c(O)c(O)c2-c2c(O)c(O)c3oc(=O)c4c(c(O)c(O)c5oc(=O)c2c3c54)-c2c(cc(O)c(O)c2O)C(=O)OCC1O (stereo not given) | -2.7
